Laboratory results: US9796711B2, “Substituted pyrazolo[3,4-b]pyridin-6-carboxylic acids and method of use” (AbbVie S.àr.l., priority 2015, dated 2017)

Legend:
[1] = target: T1, ΔF508-CFTR (Homo sapiens, UniProt P13569, DEL508-508); test: CFTR cell surface levels using HRP-tagged ΔF508-CFTR expressing CFBE cells, in the presence of a co-corrector; type: cell-based; conditions: HRP-tagged ΔF508-CFTR expressing CFBE cells, in the presence of 3 μM co-corrector; for EC50: read-out: EC50
T1 construct: host or cells: CFBE41o-, doxycycline-inducible
T1 sequence (P13569 with tags, fused parts or gaps DEL508-508): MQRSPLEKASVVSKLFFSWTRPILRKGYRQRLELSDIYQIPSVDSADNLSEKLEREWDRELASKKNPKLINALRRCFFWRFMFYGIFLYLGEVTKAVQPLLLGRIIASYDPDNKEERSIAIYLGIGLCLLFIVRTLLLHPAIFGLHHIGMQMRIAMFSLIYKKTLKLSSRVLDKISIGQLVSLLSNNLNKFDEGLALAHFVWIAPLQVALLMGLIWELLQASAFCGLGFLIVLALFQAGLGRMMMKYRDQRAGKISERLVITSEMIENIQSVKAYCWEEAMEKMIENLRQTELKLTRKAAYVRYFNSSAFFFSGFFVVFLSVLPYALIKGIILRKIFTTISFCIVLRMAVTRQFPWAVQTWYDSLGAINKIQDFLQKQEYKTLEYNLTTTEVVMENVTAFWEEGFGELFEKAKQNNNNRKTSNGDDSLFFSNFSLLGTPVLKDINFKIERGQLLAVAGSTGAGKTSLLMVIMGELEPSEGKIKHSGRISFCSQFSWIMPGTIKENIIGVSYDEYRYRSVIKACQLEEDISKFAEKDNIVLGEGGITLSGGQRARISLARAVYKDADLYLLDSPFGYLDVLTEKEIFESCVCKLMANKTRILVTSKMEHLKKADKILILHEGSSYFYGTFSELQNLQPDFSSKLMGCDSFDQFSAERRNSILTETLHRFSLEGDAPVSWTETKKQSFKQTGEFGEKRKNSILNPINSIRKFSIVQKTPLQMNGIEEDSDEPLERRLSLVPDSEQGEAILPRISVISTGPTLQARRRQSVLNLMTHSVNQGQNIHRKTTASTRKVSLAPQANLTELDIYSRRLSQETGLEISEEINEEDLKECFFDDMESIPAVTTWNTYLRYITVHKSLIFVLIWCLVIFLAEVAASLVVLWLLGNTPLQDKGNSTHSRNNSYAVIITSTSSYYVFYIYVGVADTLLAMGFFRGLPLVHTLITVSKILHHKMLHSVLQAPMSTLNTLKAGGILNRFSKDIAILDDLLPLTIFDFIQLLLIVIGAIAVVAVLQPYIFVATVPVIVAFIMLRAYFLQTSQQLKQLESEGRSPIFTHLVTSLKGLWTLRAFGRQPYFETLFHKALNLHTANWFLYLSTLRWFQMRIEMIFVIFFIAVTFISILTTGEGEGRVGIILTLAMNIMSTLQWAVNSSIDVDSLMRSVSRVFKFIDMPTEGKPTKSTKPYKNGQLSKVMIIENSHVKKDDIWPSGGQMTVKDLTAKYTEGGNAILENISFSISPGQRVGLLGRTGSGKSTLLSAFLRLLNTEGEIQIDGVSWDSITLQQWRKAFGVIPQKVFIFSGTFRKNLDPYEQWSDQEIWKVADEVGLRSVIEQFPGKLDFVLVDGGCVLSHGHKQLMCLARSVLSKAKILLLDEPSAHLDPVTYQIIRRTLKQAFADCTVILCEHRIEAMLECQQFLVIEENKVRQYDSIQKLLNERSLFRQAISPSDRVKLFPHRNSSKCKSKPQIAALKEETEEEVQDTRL
In short: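 Cells were seeded with 0.5 μg/mL doxycycline and held 68 h at 37 °C. Test compounds plus 3 μM co-corrector (final 0.1% DMSO) were then added for 20 h at 33 °C. Washed cells received HRP substrate, and luminescence was normalized between DMSO and 3 μM co-corrector controls.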

[2] = target: T1, ΔF508-CFTR; test: CFTR cell surface levels using HRP-tagged ΔF508-CFTR expressing CFBE cells, intrinsic corrector capacity; type: cell-based; conditions: HRP-tagged ΔF508-CFTR expressing CFBE cells, intrinsic corrector capacity (no co-corrector), 33° C., 20 hours; for EC50: read-out: EC50
In short: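 Here the cells express ΔF508-CFTR with horseradish peroxidase inserted in extracellular loop 4, so only rescued channel at the surface gives luminescent signal. Compounds act on their own, 20 h at the reduced temperature of 33 °C; values are percent activity relative to DMSO and a 3 μM corrector.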

CN1CCN(CCCOc2cc(C(=O)O)nc3c2c(C2CCC2)nn3-c2ccccc2)CC1 [compound 634, 3-cyclobutyl-4-[3-(4-methylpiperazin-1-yl)propoxy]-1-phenyl-1H-pyrazolo[3,4-b]pyridine-6-carboxylic acid]
% Activation [1]: 294.7% | EC50 [1]: 2570 nM | % Activation [2]: 122.2% | EC50 [2]: 3330 nM

CN(C)CCCOc1cc(C(=O)O)nc2c1c(C1CCC1)nn2-c1ccccc1 [compound 635, 3-cyclobutyl-4-[3-(dimethylamino)propoxy]-1-phenyl-1H-pyrazolo[3,4-b]pyridine-6-carboxylic acid]
% Activation [1]: 233.85% | EC50 [1]: 2110 nM | % Activation [2]: 86.1% | EC50 [2]: 3330 nM

CN(C)CC(C)(C)COc1cc(C(=O)O)nc2c1c(C1CCC1)nn2-c1ccccc1 [compound 636, 3-cyclobutyl-4-[3-(dimethylamino)-2,2-dimethylpropoxy]-1-phenyl-1H-pyrazolo[3,4-b]pyridine-6-carboxylic acid]
% Activation [1]: 391.3% | EC50 [1]: 790 nM | % Activation [2]: 184.1% | EC50 [2]: 617 nM

CN(C)CCOc1cc(C(=O)O)nc2c1c(C1CCC1)nn2-c1ccccc1 [compound 637, 3-cyclobutyl-4-[2-(dimethylamino)ethoxy]-1-phenyl-1H-pyrazolo[3,4-b]pyridine-6-carboxylic acid]
% Activation [1]: 174.45% | EC50 [1]: 3010 nM | % Activation [2]: 49.14% | EC50 [2]: 3330 nM

CN(C)CC(CN(C)C)Oc1cc(C(=O)O)nc2c1c(C1CCC1)nn2-c1ccccc1 [compound 638, 4-{[1,3-bis(dimethylamino)propan-2-yl]oxy}-3-cyclobutyl-1-phenyl-1H-pyrazolo[3,4-b]pyridine-6-carboxylic acid]
% Activation [1]: 175.15% | EC50 [1]: 6660 nM | % Activation [2]: 24.93% | EC50 [2]: > 10000 nM

O=C(O)c1cc(OCCN2CCCCC2)c2c(C3CCC3)nn(-c3ccccc3)c2n1 [compound 639, 3-cyclobutyl-1-phenyl-4-[2-(piperidin-1-yl)ethoxy]-1H-pyrazolo[3,4-b]pyridine-6-carboxylic acid]
% Activation [1]: 261.7% | EC50 [1]: 1670 nM | % Activation [2]: 96.54% | EC50 [2]: 2210 nM

O=C(O)c1cc(OCCN2CCNC2=O)c2c(C3CCC3)nn(-c3ccccc3)c2n1 [compound 640, 3-cyclobutyl-4-[2-(2-oxoimidazolidin-1-yl)ethoxy]-1-phenyl-1H-pyrazolo[3,4-b]pyridine-6-carboxylic acid]
% Activation [1]: 137.45% | EC50 [1]: > 10000 nM | % Activation [2]: 13.97% | EC50 [2]: > 10000 nM

O=C(O)c1cc(OC(CN2CCOCC2)CN2CCOCC2)c2c(C3CCC3)nn(-c3ccccc3)c2n1 [compound 641, 4-{[1,3-bis(morpholin-4-yl)propan-2-yl]oxy}-3-cyclobutyl-1-phenyl-1H-pyrazolo[3,4-b]pyridine-6-carboxylic acid]
% Activation [1]: 239.75% | EC50 [1]: 2270 nM | % Activation [2]: 65.07% | EC50 [2]: 3330 nM

O=C(O)c1cc(OCCCN2CCCCC2)c2c(C3CCC3)nn(-c3ccccc3)c2n1 [compound 642, 3-cyclobutyl-1-phenyl-4-[3-(piperidin-1-yl)propoxy]-1H-pyrazolo[3,4-b]pyridine-6-carboxylic acid]
% Activation [1]: 281.95% | EC50 [1]: 2400 nM | % Activation [2]: 125.9% | EC50 [2]: 3330 nM

O=C(O)c1cc(OCCN2CCCCCC2)c2c(C3CCC3)nn(-c3ccccc3)c2n1 [compound 643, 4-[2-(azepan-1-yl)ethoxy]-3-cyclobutyl-1-phenyl-1H-pyrazolo[3,4-b]pyridine-6-carboxylic acid]
% Activation [1]: 271.8% | EC50 [1]: 1260 nM | % Activation [2]: 95.84% | EC50 [2]: 2900 nM

CN1CCCN(CCOc2cc(C(=O)O)nc3c2c(C2CCC2)nn3-c2ccccc2)CC1 [compound 644, 3-cyclobutyl-4-[2-(4-methyl-1,4-diazepan-1-yl)ethoxy]-1-phenyl-1H-pyrazolo[3,4-b]pyridine-6-carboxylic acid]
% Activation [1]: 196.3% | EC50 [1]: 3330 nM | % Activation [2]: 42.75% | EC50 [2]: 3330 nM

CN1CCC[C@]12C[C@@H](Oc1cc(C(=O)O)nc3c1c(C1CCC1)nn3-c1ccccc1)C2 [compound 645, 3-cyclobutyl-4-{[(2s,4r)-5-methyl-5-azaspiro[3.4]octan-2-yl]oxy}-1-phenyl-1H-pyrazolo[3,4-b]pyridine-6-carboxylic acid]
% Activation [1]: 270.05% | EC50 [1]: 409 nM | % Activation [2]: 111.55% | EC50 [2]: 1070 nM

CCN(CC)CC1(N2CC(Oc3cc(C(=O)O)nc4c3c(C3CCC3)nn4-c3ccccc3)C2)COC1 [compound 646, 3-cyclobutyl-4-[(1-{3-[(diethylamino)methyl]oxetan-3-yl}azetidin-3-yl)oxy]-1-phenyl-1H-pyrazolo[3,4-b]pyridine-6-carboxylic acid]
% Activation [1]: 198% | EC50 [1]: 3330 nM | % Activation [2]: 45.39% | EC50 [2]: 3330 nM

CC(C)N1CCC(Oc2cc(C(=O)O)nc3c2c(C2CCC2)nn3-c2ccccc2)CC1 [compound 647, 3-cyclobutyl-1-phenyl-4-{[1-(propan-2-yl)piperidin-4-yl]oxy}-1H-pyrazolo[3,4-b]pyridine-6-carboxylic acid]
% Activation [1]: 301.3% | EC50 [1]: 2010 nM | % Activation [2]: 119.9% | EC50 [2]: 2180 nM

O=C(O)c1cc(OC2CCCCCC2)c2c(C3CCC3)nn(-c3ccccc3)c2n1 [compound 648, 3-cyclobutyl-4-(cycloheptyloxy)-1-phenyl-1H-pyrazolo[3,4-b]pyridine-6-carboxylic acid]
% Activation [1]: 296.1% | EC50 [1]: 203 nM | % Activation [2]: 90.745% | EC50 [2]: 263 nM

O=C(O)c1cc(OC2CCCCCCC2)c2c(C3CCC3)nn(-c3ccccc3)c2n1 [compound 649, 3-cyclobutyl-4-(cyclooctyloxy)-1-phenyl-1H-pyrazolo[3,4-b]pyridine-6-carboxylic acid]
% Activation [1]: 314.65% | EC50 [1]: 225 nM | % Activation [2]: 107.6% | EC50 [2]: 432 nM

CN1CC[C@@H](Oc2cc(C(=O)O)nc3c2c(C2CCC2)nn3-c2ccccc2)C1 [compound 650, 3-cyclobutyl-4-{[(3R)-1-methylpyrrolidin-3-yl]oxy}-1-phenyl-1H-pyrazolo[3,4-b]pyridine-6-carboxylic acid]
% Activation [1]: 193.6% | EC50 [1]: 3330 nM | % Activation [2]: 45.88% | EC50 [2]: 3330 nM

CN1CC[C@H](Oc2cc(C(=O)O)nc3c2c(C2CCC2)nn3-c2ccccc2)C1 [compound 651, 3-cyclobutyl-4-{[(3S)-1-methylpyrrolidin-3-yl]oxy}-1-phenyl-1H-pyrazolo[3,4-b]pyridine-6-carboxylic acid]
% Activation [1]: 187.9% | EC50 [1]: 2200 nM | % Activation [2]: 54.22% | EC50 [2]: 3330 nM

CC(C)c1nn(-c2ccc(F)cc2)c2nc(C(=O)O)cc(OCC3(C)CC(F)(F)C3)c12 [compound 652, 4-[(3,3-difluoro-1-methylcyclobutyl)methoxy]-1-(4-fluorophenyl)-3-(propan-2-yl)-1H-pyrazolo[3,4-b]pyridine-6-carboxylic acid]
% Activation [1]: 310.6% | EC50 [1]: 203 nM | % Activation [2]: 130.6% | EC50 [2]: 334 nM
